# In patent US11684614B2, “Formulations of hydroxypyridonate actinide/lanthanide decorporation agents” (priority 2017, dated 2023):
# Where “and” joins values, the source holds several entries; their conditions need not be identical. Identical values can stand only once.
# Assay: Repeated-treatment efficacy for removing an intravenous dose of 238Pu (excretion, tissue retention, clinical observations), female and male arms
# Assay type: in vivo, Swiss-Webster mice
# Settings: for % Recovered Dose-Female Animals-Urine per Day-Day 11 Necropsy: animal group H
# Experimental: The objective of this study was to characterize the efficacy of 3,4,3-L1(1,2-HOPO) at enhancing elimination from an internal plutonium burden in female and male Swiss-Webster mice administered a soluble citrate complex of ^238Pu and treated multiple times, starting at 24 hours after the exposure. Efficacy was evaluated by comparing the tissue contents, urinary and fecal excretions of ^238Pu in treated animals versus untreated animals.
# The medical countermeasure 3,4,3-L1(1,2-HOPO) was administered parenterally (ip) or orally (po) via consecutive injections or gavages (six daily or twelve twice daily) starting at 24 hours post contamination at the following four selected doses: 30 μmol/kg ip, 150 μmol/kg po, 300 μmol/kg po, and 600 μmol/kg po (equivalent to respective approximate human doses range of […], using the accepted conversion system of mouse doses into human equivalent doses—HED—based on body surface area). Oral doses also included the permeability enhancer selected during formulation development work.
# • Challenge isotope: ^238Pu • Challenge dose: 25 nCi (i.e., approximately 0.8 μCi/kg) • Route of contamination: Intravenous (iv) tail-vein • Route of treatment: Intraperitoneal Injection (ip) or Oral (po) • Frequency of treatment: Multiple (once- or twice-daily for 6 days) doses, starting 24 hr postcontamination • Treatment dose calculation: Dose calculations (mg/kg or μmol/kg) for the decorporation agent were based on the individual body weight measured after contamination. • Study Duration: 11 days, in-life
# c. […] Test article and control dose formulations were prepared within 1 day of dose administration, by weighing out the appropriate amount of test article, dispersing in vehicle. For ip solutions, the test article was used alone, while for oral suspensions, a mixture of test article and excipient (90:10, w:w) was used. The pH was adjusted to 7.0-7.4 for ip administration and 5.0-5.5 for oral administration with sterile NaOH. Dose formulations were prepared at room temperature and filter-sterilized. • Storage: 2-8° C.; refrigerated; protected from light. • Characterization: The concentration of each test article formulation was verified by high-performance liquid chromatography-mass spectrometry. • Test Article Handling: Test, reference, and control article formulations were handled with the use of eye protection, gloves, and a protective laboratory coat. • Correct Dose Assurance: The test article was weighed with calibrated balances. The administration of each dose formulation was properly documented, and the amount administered to each animal recorded.
# e. Experimental Procedures (In-Life Evaluations and Euthanasia) • Contamination: Single administration by intravenous (iv) tail-vein injection (0.2 mL injection volume) under isoflurane anesthesia. Three standard 0.2 mL injections were performed into polyethylene bottles and pre-loaded with aliquots of concentrated nitric acid on each injection day. Six female and six male mice were culled for necropsy 1 hr post-contamination and were used as standards. A11 standards were processed and counted together with the final samples to allow verification of the contamination dose. • Dose Administration: Single administration by intraperitoneal injection (ip) or oral gavage (po) under isoflurane anesthesia. • Mortality/Morbidity: Assessed at least once daily. • Clinical Observations: Recorded once daily (4 hr post-dose on day of treatment), or more often as clinical signs warranted. […]
structure (smiles),measurement,setting,value
"O=C(NCCCN(CCCCN(CCCNC(=O)c1cccc(=O)n1O)C(=O)c1cccc(=O)n1O)C(=O)c1cccc(=O)n1O)c1cccc(=O)n1O [3,4,3-L1(1,2-HOPO)]",% Recovered Dose-Female Animals-Feces per Day-Day 7 Necropsy,"animal group B, day 1, female mice",9.41%
same,% Recovered Dose-Female Animals-Feces per Day-Day 7 Necropsy,"animal group B, day 2, female mice",8.35%
same,% Recovered Dose-Female Animals-Feces per Day-Day 7 Necropsy,"animal group B, day 3, female mice",2.59%
same,% Recovered Dose-Female Animals-Feces per Day-Day 7 Necropsy,"animal group B, day 4, female mice",1.99%
same,% Recovered Dose-Female Animals-Feces per Day-Day 7 Necropsy,"animal group B, day 5, female mice",2.39%
same,% Recovered Dose-Female Animals-Feces per Day-Day 7 Necropsy,"animal group B, day 6, female mice",2.12%
same,% Recovered Dose-Female Animals-Feces per Day-Day 7 Necropsy,"animal group B, day 7, female mice",1.74%
same,% Recovered Dose-Female Animals-Feces per Day-Day 7 Necropsy,"animal group C, day 1, female mice, listed as 3,4,3-LI(1,2-HOPO)",11.51% and 5.30% and 8.74% and 7.20%
same,% Recovered Dose-Female Animals-Feces per Day-Day 7 Necropsy,"animal group C, day 2, female mice, listed as 3,4,3-LI(1,2-HOPO)",13.77% and 8.33% and 12.44% and 14.41%
same,% Recovered Dose-Female Animals-Feces per Day-Day 7 Necropsy,"animal group C, day 3, female mice, listed as 3,4,3-LI(1,2-HOPO)",4.51% and 3.49% and 4.66% and 4.88%
same,% Recovered Dose-Female Animals-Feces per Day-Day 7 Necropsy,"animal group C, day 4, female mice, listed as 3,4,3-LI(1,2-HOPO)",3.35% and 3.00% and 3.74% and 4.08%
same,% Recovered Dose-Female Animals-Feces per Day-Day 7 Necropsy,"animal group C, day 5, female mice, listed as 3,4,3-LI(1,2-HOPO)",2.71% and 2.82% and 2.30% and 2.85%
same,% Recovered Dose-Female Animals-Feces per Day-Day 7 Necropsy,"animal group C, day 6, female mice, listed as 3,4,3-LI(1,2-HOPO)",2.52% and 2.18% and 2.39% and 3.01%
same,% Recovered Dose-Female Animals-Feces per Day-Day 7 Necropsy,"animal group C, day 7, female mice, listed as 3,4,3-LI(1,2-HOPO)",2.15% and 1.62% and 1.98% and 2.66%
same,% Recovered Dose-Female Animals-Feces per Day-Day 7 Necropsy,"animal group E, day 1, female mice, listed as 3,4,3-LI(1,2-HOPO)",6.10% and 10.77% and 13.26% and 10.08%
same,% Recovered Dose-Female Animals-Feces per Day-Day 7 Necropsy,"animal group E, day 2, female mice, listed as 3,4,3-LI(1,2-HOPO)",8.15% and 10.30% and 9.61% and 15.30%
same,% Recovered Dose-Female Animals-Feces per Day-Day 7 Necropsy,"animal group E, day 3, female mice, listed as 3,4,3-LI(1,2-HOPO)",2.89% and 5.25% and 5.53% and 2.67%
same,% Recovered Dose-Female Animals-Feces per Day-Day 7 Necropsy,"animal group E, day 4, female mice, listed as 3,4,3-LI(1,2-HOPO)",2.76% and 3.97% and 4.52% and 2.90%
same,% Recovered Dose-Female Animals-Feces per Day-Day 7 Necropsy,"animal group E, day 5, female mice, listed as 3,4,3-LI(1,2-HOPO)",1.35% and 1.95% and 2.80% and 2.17%
same,% Recovered Dose-Female Animals-Feces per Day-Day 7 Necropsy,"animal group E, day 6, female mice, listed as 3,4,3-LI(1,2-HOPO)",1.90% and 1.34% and 2.01% and 2.18%
same,% Recovered Dose-Female Animals-Feces per Day-Day 7 Necropsy,"animal group E, day 7, female mice, listed as 3,4,3-LI(1,2-HOPO)",2.23% and 1.29% and 1.91% and 2.16%
same,% Recovered Dose-Female Animals-Feces per Day-Day 7 Necropsy,"animal group F, day 1, female mice, listed as 3,4,3-LI(1,2-HOPO)",9.32% and 9.52% and 7.17% and 5.19%
same,% Recovered Dose-Female Animals-Feces per Day-Day 7 Necropsy,"animal group F, day 2, female mice, listed as 3,4,3-LI(1,2-HOPO)",8.03% and 12.87% and 9.08% and 6.87%
same,% Recovered Dose-Female Animals-Feces per Day-Day 7 Necropsy,"animal group F, day 3, female mice, listed as 3,4,3-LI(1,2-HOPO)",2.78% and 4.30% and 4.68% and 2.63%
same,% Recovered Dose-Female Animals-Feces per Day-Day 7 Necropsy,"animal group F, day 4, female mice, listed as 3,4,3-LI(1,2-HOPO)",2.68% and 3.98% and 3.14% and 2.89%
same,% Recovered Dose-Female Animals-Feces per Day-Day 7 Necropsy,"animal group F, day 5, female mice, listed as 3,4,3-LI(1,2-HOPO)",2.30% and 3.01% and 3.85% and 3.00%
same,% Recovered Dose-Female Animals-Feces per Day-Day 7 Necropsy,"animal group F, day 6, female mice, listed as 3,4,3-LI(1,2-HOPO)",2.40% and 2.04% and 2.26% and 1.91%
same,% Recovered Dose-Female Animals-Feces per Day-Day 7 Necropsy,"animal group F, day 7, female mice, listed as 3,4,3-LI(1,2-HOPO)",1.39% and 1.59% and 2.15% and 2.13%
same,% Recovered Dose-Female Animals-Urine per Day-Day 11 Necropsy,"day 1, female mice, listed as 3,4,3-LI(1,2-HOPO)",9.33% and 10.42% and 5.66% and 9.35% and 11.13% and 9.41% and 6.93% and 9.39%
same,% Recovered Dose-Female Animals-Urine per Day-Day 11 Necropsy,"day 2, female mice, listed as 3,4,3-LI(1,2-HOPO)",3.78% and 5.22% and 5.30% and 4.96% and 5.23% and 5.12% and 3.93% and 5.10%
same,% Recovered Dose-Female Animals-Urine per Day-Day 11 Necropsy,"day 3, female mice, listed as 3,4,3-LI(1,2-HOPO)",4.12% and 4.15% and 6.39% and 5.55% and 5.41% and 4.29% and 3.92% and 3.16%
same,% Recovered Dose-Female Animals-Urine per Day-Day 11 Necropsy,"day 4, female mice, listed as 3,4,3-LI(1,2-HOPO)",2.95% and 3.74% and 4.22% and 3.34% and 3.22% and 4.38% and 2.99% and 5.19%
same,% Recovered Dose-Female Animals-Urine per Day-Day 11 Necropsy,"day 5, female mice, listed as 3,4,3-LI(1,2-HOPO)",3.24% and 2.72% and 3.06% and 2.44% and 3.11% and 2.27% and 1.41% and 2.10%
same,% Recovered Dose-Female Animals-Urine per Day-Day 11 Necropsy,"day 6, female mice, listed as 3,4,3-LI(1,2-HOPO)",1.23% and 2.05% and 2.60% and 1.54% and 1.89% and 1.51% and 0.91% and 1.79%
same,% Recovered Dose-Female Animals-Urine per Day-Day 11 Necropsy,"day 7, female mice, listed as 3,4,3-LI(1,2-HOPO)",1.33% and 1.66% and 2.35% and 1.27% and 1.38% and 1.35% and 1.24% and 1.89%
